Measured values from the NIST ThermoML archive (doi:10.1016/j.fluid.2018.10.024).

Experiments:
[1] = 101.33 kPa, Liquid; for viscosity: Capillary tube (Ostwald / Ubbelohde) method; for mass density: Vibrating tube method
[2] = refractive index (Na D-line) (dimensionless); conditions: 101.33 kPa, Liquid, Standard Abbe refractometry
[3] = xn = mol fraction of the nth substance listed; conditions: 101 kPa, Liquid, x1 = 1; for viscosity: Capillary tube (Ostwald / Ubbelohde) method; for mass density: Vibrating tube method
[4] = refractive index (Na D-line) (dimensionless); xn = mol fraction of the nth substance listed; conditions: 101 kPa, Liquid, Standard Abbe refractometry, x1 = 1

CC(C)=O [acetone]
Conditions | mass density, [1] [kg/m3] | refractive index, [2] | viscosity, [1] [mPa·s]
298.15 K | 784.41 | 1.3558 | 0.3034
303.15 K | 778.66 | 1.3534 | 0.2966
308.15 K | 773.08 | 1.3509 | 0.2831
313.15 K | 766.95 | 1.349 | 0.2689
318.15 K | 761.26 | 1.3449 | 0.2511

CC(C)=O [acetone] + ClC(Cl)Cl
Conditions | mass density, [3] [kg/m3] | refractive index, [4] | viscosity, [3] [mPa·s]
298.15 K | 784.41 | 1.3558 | 0.3034
303.15 K | 778.66 | 1.3534 | 0.2966
308.15 K | 773.08 | 1.3509 | 0.2831
313.15 K | 766.95 | 1.349 | 0.2689
318.15 K | 761.26 | 1.3449 | 0.2511

CO [methanol]
Conditions | mass density, [1] [kg/m3] | refractive index, [2] | viscosity, [1] [mPa·s]
298.15 K | 787.21 | 1.3271 | 0.5467
303.15 K | 782.75 | 1.3245 | 0.5058
308.15 K | 777.56 | 1.323 | 0.4818
313.15 K | 772.97 | 1.3208 | 0.4484
318.15 K | 768.03 | 1.3184 | 0.4208

CO [methanol] + CC(C)=O
Conditions | mass density, [3] [kg/m3] | refractive index, [4] | viscosity, [3] [mPa·s]
298.15 K | 787.21 | 1.3271 | 0.5467
303.15 K | 782.75 | 1.3245 | 0.5058
308.15 K | 777.56 | 1.323 | 0.4818
313.15 K | 772.97 | 1.3208 | 0.4484
318.15 K | 768.03 | 1.3184 | 0.4208

CO [methanol] + ClC(Cl)Cl
Conditions | mass density, [3] [kg/m3] | refractive index, [4] | viscosity, [3] [mPa·s]
298.15 K | 787.21 | 1.3271 | 0.5467
303.15 K | 782.75 | 1.3245 | 0.5058
308.15 K | 777.56 | 1.323 | 0.4765
313.15 K | 772.97 | 1.3208 | 0.4426
318.15 K | 768.03 | 1.3184 | 0.4153

ClC(Cl)Cl [trichloromethane]
Conditions | mass density, [1] [kg/m3] | refractive index, [2] | viscosity, [1] [mPa·s]
298.15 K | 1478.75 | 1.4422 | 0.5916
303.15 K | 1469.16 | 1.4397 | 0.558
308.15 K | 1460.01 | 1.4356 | 0.5333
313.15 K | 1450.39 | 1.4338 | 0.5072
318.15 K | 1440.03 | 1.4297 | 0.4849
